From PubChem BioAssay (NCI)
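GI50 is the concentration that inhibits growth by half. TGI denotes the concentration required for complete inhibition of growth.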

Assays:
Test in all cases: NCI tumour cell line growth inhibition, 384-well format
[1] = tested on: HCT-116 colon
[2] = tested on: OVCAR-4 ovarian
[3] = tested on: RXF 393 renal
[4] = tested on: NCI-H522 lung
[5] = tested on: NCI-H322M lung
[6] = tested on: LOX IMVI melanoma
[7] = tested on: OVCAR-3 ovarian
[8] = tested on: SN12C renal
[9] = tested on: RPMI-8226 leukemia
[10] = tested on: T-47D breast
[11] = tested on: MDA-MB-468 breast
[12] = tested on: NCI-H226 lung
[13] = tested on: SK-MEL-28 melanoma

N#Cc1c(N)nc(N)nc1N[C@H](c1nc2c(F)ccc(Cl)c2c(=O)n1-c1cccnc1)C1CC1
GI50 [1]: 16.1 µM
TGI [1]: 35.9 µM
GI50 [2]: 10.8 µM
TGI [2]: 52.7 µM
GI50 [3]: 0.2 µM
TGI [3]: 0.936 µM
GI50 [4]: 16.9 µM
TGI [4]: 48.5 µM
GI50 [5]: 14.9 µM
TGI [5]: > 80.1 µM
GI50 [6]: 5.13 µM
TGI [6]: 18.6 µM
GI50 [7]: 0.728 µM
TGI [7]: 6.73 µM
GI50 [8]: 4.29 µM
TGI [8]: > 100 µM
GI50 [9]: 3.36 µM
TGI [9]: 10.3 µM
GI50 [10]: 1.02 µM
TGI [10]: 5.99 µM
GI50 [11]: 0.912 µM
TGI [11]: 5.94 µM
GI50 [12]: 15.6 µM
TGI [12]: > 57.7 µM
GI50 [13]: 3.88 µM
TGI [13]: > 100 µM
